In BindingDB's records for doi:10.1016/j.bmc.2013.03.035 (University of Poitiers, 2013):

Experiment: Inhibition of bovine liver beta-glucosidase

IC50: 487 µM
SMILES: CC[C@@H]1NC[C@@H](O)[C@@H](O)[C@H](O)[C@H]1O
